Source: paper PMC9838653 (Biochemistry, 2022)

Target: C4-reductase from serotype HS:15 (HS:15) (Campylobacter jejuni, UniProt F2X7A6)
Assay: X-ray crystal structure, […] A
Assay type: binding
Conditions: co-crystallised with 5 mM NADPH and 5 mM GDP; pH 7.5; active site

| SMILES | X-ray crystal structure, 1.45 A |
| --- | --- |
| Nc1nc2c(ncn2[C@@H]2O[C@H](COP(=O)(O)OP(=O)(O)O)[C@@H](O)[C@H]2O)c(=O)[nH]1 [GDP] | the corresponding electron densities for the GDP and NADPH ligands were unambiguous |
| NC(=O)C1=CN([C@@H]2O[C@H](COP(=O)(O)OP(=O)(O)OC[C@H]3O[C@@H](n4cnc5c(N)ncnc54)[C@H](OP(=O)(O)O)[C@@H]3O)[C@@H](O)[C@H]2O)C=CC1 [NADPH] | the corresponding electron densities for the GDP and NADPH ligands were unambiguous |
